From patent US20150111852A1, “1-Di(sec-butyl)-phosphinoyl-pentane (dapa-2-5) as a topical agent” (priority 2013, published 2015)

Assays:
[1] = test system: isolated TRPM8 knock-out mouse vagus; experiment: Capsaicin-induced depolarization of isolated vagus nerve, TRPM8 knock-out; conditions: 1 mg/mL, capsaicin 1 μM, TRPM8 KO, read-out: per cent inhibition of capsaicin-induced depolarization
Description: To examine the ability of DAPA-2-5 to suppress sensory discomfort, it was tested in an animal model developed at the Imperial College, London, U.K. [Birrell et al. TRPA1 agonists evoke coughing in guinea pig and human volunteers. Amer. J. Respiratory and Critical Care Medicine 180, 1042-7, 2009; Patel et al., Inhibition of guinea-pig and human sensory nerve activity and the cough reflex in guinea-pigs by cannabinoid (CB2) receptor activation. British J. Pharmacol. 140, 261-8 2003]. In this in vitro assay, segments of the vagus nerve are placed on a platform and the electrical activity is recorded after topical application of capsaicin. Capsaicin is a known irritant that elicits pain when it is applied to the skin and it will depolarize the isolated vagus. The ability of substances to inhibit this capsaicin-induced depolarization is measured.
Briefly, segments of vagus nerve, caudal to the nodose ganglion, were removed from mice with fine forceps and segments placed in oxygenated Krebs solution and bubbled with 95% O2/5% CO2. The desheathed nerve trunk was mounted in a ‘grease-gap’ recording chamber and constantly superfused with Krebs solution with a flow rate of approximately 2 mL/min, and the electrical activity of the nerve monitored with electrodes. The temperature of the perfusate was kept constant at 37° C. by a water bath. […]

capsaicin-induced cough = experiment: Guinea pig cough model, capsaicin mist; type: in vivo; conditions: capsaicin 0.1 mM mist, identical design
Description: This study was repeated with an identical design, but using capsaicin 0.1 mM mist as the stimulus.

[2] = molecular target: T1, hNav1.7 (sodium channels) (Homo sapiens, UniProt Q15858); experiment: Patch-clamp in transfected cells, hNav1.7; type: cell-based; conditions: DAPA-2-5 at 5 μM; positive control lidocaine
T1 construct: expressed in transfected cells
T1 sequence (Q15858 whole entry): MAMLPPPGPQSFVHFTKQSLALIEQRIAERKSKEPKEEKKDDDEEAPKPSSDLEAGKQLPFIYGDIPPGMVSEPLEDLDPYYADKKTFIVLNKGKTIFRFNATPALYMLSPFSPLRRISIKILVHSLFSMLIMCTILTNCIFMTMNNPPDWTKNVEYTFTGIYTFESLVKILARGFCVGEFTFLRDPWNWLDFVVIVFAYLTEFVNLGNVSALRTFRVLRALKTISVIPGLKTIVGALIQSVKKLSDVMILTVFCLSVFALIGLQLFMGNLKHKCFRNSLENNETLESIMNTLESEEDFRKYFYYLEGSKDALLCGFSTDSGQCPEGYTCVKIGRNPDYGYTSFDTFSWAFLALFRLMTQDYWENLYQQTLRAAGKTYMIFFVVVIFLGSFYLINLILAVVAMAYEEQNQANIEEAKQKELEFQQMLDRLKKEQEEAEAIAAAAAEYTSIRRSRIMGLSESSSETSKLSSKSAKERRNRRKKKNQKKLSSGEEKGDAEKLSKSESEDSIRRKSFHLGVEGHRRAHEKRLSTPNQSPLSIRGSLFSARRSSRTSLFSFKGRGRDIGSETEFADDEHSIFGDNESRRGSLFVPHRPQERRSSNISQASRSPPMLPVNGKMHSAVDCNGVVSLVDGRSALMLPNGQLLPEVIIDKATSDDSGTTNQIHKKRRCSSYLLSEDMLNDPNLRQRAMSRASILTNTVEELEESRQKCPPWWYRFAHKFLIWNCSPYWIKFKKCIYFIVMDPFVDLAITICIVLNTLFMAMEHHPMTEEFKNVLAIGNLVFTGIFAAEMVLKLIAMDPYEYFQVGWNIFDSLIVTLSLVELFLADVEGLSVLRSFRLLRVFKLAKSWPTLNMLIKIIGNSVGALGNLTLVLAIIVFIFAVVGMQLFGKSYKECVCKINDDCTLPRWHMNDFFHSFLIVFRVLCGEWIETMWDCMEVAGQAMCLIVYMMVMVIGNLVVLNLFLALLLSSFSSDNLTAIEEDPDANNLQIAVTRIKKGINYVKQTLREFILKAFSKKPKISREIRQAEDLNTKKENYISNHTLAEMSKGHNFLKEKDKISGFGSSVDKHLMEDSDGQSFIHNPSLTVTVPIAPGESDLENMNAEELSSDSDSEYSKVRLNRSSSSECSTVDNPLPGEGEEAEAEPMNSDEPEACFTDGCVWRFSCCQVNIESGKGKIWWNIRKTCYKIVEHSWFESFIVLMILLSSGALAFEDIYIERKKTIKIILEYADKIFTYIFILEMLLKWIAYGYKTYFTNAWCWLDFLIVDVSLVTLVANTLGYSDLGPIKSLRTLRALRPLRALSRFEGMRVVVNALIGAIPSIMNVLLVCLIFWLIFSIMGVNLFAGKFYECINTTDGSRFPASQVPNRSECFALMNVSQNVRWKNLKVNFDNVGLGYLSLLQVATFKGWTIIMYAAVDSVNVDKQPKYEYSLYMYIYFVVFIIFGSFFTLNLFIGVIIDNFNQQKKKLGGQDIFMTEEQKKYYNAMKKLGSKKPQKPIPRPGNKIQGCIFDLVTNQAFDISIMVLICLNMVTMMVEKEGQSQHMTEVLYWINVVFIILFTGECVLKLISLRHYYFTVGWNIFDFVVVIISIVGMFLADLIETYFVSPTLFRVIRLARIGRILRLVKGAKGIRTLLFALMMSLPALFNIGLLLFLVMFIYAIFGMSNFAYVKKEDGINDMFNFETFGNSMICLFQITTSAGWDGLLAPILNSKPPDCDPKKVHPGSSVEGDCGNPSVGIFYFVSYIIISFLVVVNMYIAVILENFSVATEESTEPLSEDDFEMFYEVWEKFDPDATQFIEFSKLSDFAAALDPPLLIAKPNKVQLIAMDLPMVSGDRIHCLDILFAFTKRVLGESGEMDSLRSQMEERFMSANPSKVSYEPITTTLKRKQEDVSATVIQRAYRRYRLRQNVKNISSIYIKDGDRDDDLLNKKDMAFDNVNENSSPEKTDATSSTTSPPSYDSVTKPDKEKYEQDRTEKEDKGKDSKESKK

[3] = test system: citric acid-induced cough; experiment: Guinea pig cough model, citric acid mist; type: in vivo; conditions: 2 mg/mL in saline, 75 μL per animal, 1 M citric acid mist, 10 min observation period
Description: Male specific pathogen—free guinea pigs about one month of age, weighing 250 to 300 g, were obtained from the medical experimental animal center of Guang Dong Province, China, and housed in rooms maintained at 22±2° C. and 55±15% humidity with a 12-hr light cycle and 20 air changes per hr. The experimental procedures were approved by the Institutional Animal Care and Use Committee. Guinea pigs were placed in a transparent plastic 2 L plethysmography chamber equipped with a bias flow regulator that withdrew air at a rate of 2.5 L/min (Buxco, Wilmington, N.C., USA). […] The frequency was detected as a transient change in airflow in the chamber and the signal recorded via a pressure transducer and computer. Additionally, the audio-amplified count was also recorded electronically. Coughs were counted for the 10 min exposure period. The experiment was visually monitored by the investigator. The baseline frequency of coughing was recorded for all animals (N=20) and 7 days later, animals were anesthetized with diethyl ether. […] Ten min after injection, the guinea pigs were exposed to the citric acid mist and the number of coughs recorded.

With `CCCCCP(=O)(C(C)CC)C(C)CC` (stereo not shown) [DAPA-2-5, 1-Di(sec-butyl)-phosphinoyl-pentane] the inhibition at 1000 µg/mL [1] was about 0%, the “effect on capsaicin-induced coughing” value (capsaicin-induced cough) was “inhibited the capsaiscin-induced coughing” and the “agonist or antagonist activity, hNav1.7” value [2] was “No agonist or antagonist activities”. For the same molecule, the cough frequency [3] was 6.7±1.6 coughs.
